PubChem BioAssay (NCI)
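Interpolation was linear, between the two tested concentrations surrounding the appropriate level; five concentrations were tested over 48 hours in 96-well plates. At the GI50, growth is halved. The concentration for full growth arrest is given as TGI.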

What was measured:
Assay in all cases: DTP human tumour cell line panel, 48 h
SF-539 CNS = test system: SF-539 CNS
IGROV1 ovarian = test system: IGROV1 ovarian
M14 melanoma = test system: M14 melanoma
SNB-19 CNS = test system: SNB-19 CNS
LOX IMVI melanoma = test system: LOX IMVI melanoma
NCI/ADR-RES ovarian = test system: NCI/ADR-RES ovarian
NCI-H226 lung = test system: NCI-H226 lung
BT-549 breast = test system: BT-549 breast
SW-620 colon = test system: SW-620 colon
MCF7 breast = test system: MCF7 breast

Row | Structure (SMILES) | GI50 (SF-539 CNS) | TGI (SF-539 CNS) | GI50 (IGROV1 ovarian) | TGI (IGROV1 ovarian) | GI50 (M14 melanoma) | TGI (M14 melanoma) | GI50 (SNB-19 CNS) | TGI (SNB-19 CNS) | GI50 (LOX IMVI melanoma) | TGI (LOX IMVI melanoma) | GI50 (NCI/ADR-RES ovarian) | TGI (NCI/ADR-RES ovarian) | GI50 (NCI-H226 lung) | TGI (NCI-H226 lung) | GI50 (BT-549 breast) | TGI (BT-549 breast) | GI50 (SW-620 colon) | TGI (SW-620 colon) | GI50 (MCF7 breast) | TGI (MCF7 breast)
1 | COC1CC2CCC(C)C(O)(O2)C(=O)C(=O)N2CCCCC2C(=O)OC(C(C)CC2CCC(O)C(OC)C2)CC(=O)C(C)C=C(C)C(O)C(OC)C(=O)C(C)CC(C)/C=C/C=C/C=C1C (stereo not drawn) | < 0.005 µM | 11 µM | < 0.005 µM | 11.8 µM | 5.41 µM | 13.3 µM | 1.45 µM | 17 µM | 0.015 µM | 13.1 µM | 1.86 µM | 30.3 µM | < 0.005 µM | 9.71 µM | 0.00609 µM | 11 µM | 5.39 µM | 14 µM | < 0.005 µM | 14.6 µM
2 | Cc1c(-c2c(-c3ccc(F)o3)sc3ncnc(O[C@H](Cc4ccccc4OCc4ccnn4CC(F)(F)F)C(=O)O)c23)ccc(OCCN2CCN(C)CC2)c1Cl | 2.89 µM | 6.27 µM | 5.68 µM | 14.8 µM | 1.32 µM | 5.83 µM | 4.7 µM | 12.9 µM | 3.03 µM | 6.8 µM | 15.5 µM | 33.4 µM | 5.89 µM | 15.5 µM | 2.13 µM | 5.65 µM | 5.88 µM | 17.2 µM | 0.375 µM | 4.61 µM
3 | C/C(=N/Nc1nc2ccccc2n1C)c1ccccn1 | 0.225 µM | 1.94 µM | 0.0327 µM | 12.5 µM | 0.0489 µM | 0.285 µM | 0.327 µM | > 100 µM | 0.0514 µM | 11.4 µM | 0.0364 µM | 0.555 µM | 0.0584 µM | 4.69 µM | 0.223 µM | 25.5 µM | 0.0429 µM | 21.8 µM | 0.0276 µM | 16.1 µM
4 | O=C1NC(O)C(c2c[nH]c3ccccc23)=C1c1c[nH]c2ccccc12 (stereo not drawn) | > 25 µM | > 25 µM | > 25 µM | > 25 µM | > 25 µM | > 25 µM | > 25 µM | > 25 µM | > 22.5 µM | > 25 µM | > 25 µM | > 25 µM | > 25 µM | > 25 µM | > 25 µM | > 25 µM | > 25 µM | > 25 µM | > 25 µM | > 25 µM
5 | CCn1c(CN2CCN(Cc3ccccc3)CC2)nc2cc(NC(=O)c3cccs3)ccc21 | 14.6 µM | 28.4 µM | 26.5 µM | 80.3 µM | 16.9 µM | 33.4 µM | 27.7 µM | > 100 µM | 19.4 µM | 41.7 µM | 28.9 µM | > 100 µM | 15.2 µM | 41.5 µM | 13.4 µM | 28.9 µM | 17.5 µM | 43.4 µM | 19.5 µM | 59.9 µM
6 | O=C(CN1CCN(CCCOc2c(-c3ccccc3)oc3ccccc3c2=O)CC1)Nc1ccc(Cl)cc1C(=O)c1ccccc1Cl | 6.68 µM | 22.2 µM | 6.16 µM | 47.3 µM | 2.01 µM | 4.51 µM | 8.09 µM | > 100 µM | 3.87 µM | 14.4 µM | 5.74 µM | 26.4 µM | 13.9 µM | 40.2 µM | 14.1 µM | 40.5 µM | 0.336 µM | > 100 µM | 3.5 µM | 26.5 µM
7 | COc1ccc2c(=O)c3ccoc3n(CC=C(C)C)c2c1 | – | > 100 µM | – | > 100 µM | – | > 100 µM | – | > 100 µM | – | > 100 µM | – | 76.4 µM | – | > 100 µM | – | > 100 µM | – | > 100 µM | – | > 100 µM
8 | COc1ccc(/C=C/C(=O)c2ccc(SC)cc2)cc1OC | 12 µM | 27.3 µM | 4.73 µM | 25.2 µM | 3.83 µM | 14.2 µM | 21 µM | 56.9 µM | 4.12 µM | 15.5 µM | 10.9 µM | 27.3 µM | 8.42 µM | 45.1 µM | 2.86 µM | 6.66 µM | 4.44 µM | > 100 µM | > 100 µM | > 100 µM
9 | CC(C)[C@H](CO)Nc1nc(Nc2ccc(C(=O)NCCNS(=O)(=O)c3cccc4c(N(C)C)cccc34)c(Cl)c2)c2ncn(C(C)C)c2n1 | 1.68 µM | 4.39 µM | 2.62 µM | > 25.1 µM | 3.24 µM | > 100 µM | 2.93 µM | > 100 µM | 2.71 µM | > 100 µM | > 100 µM | > 100 µM | 2.75 µM | > 40 µM | 1.96 µM | 7.46 µM | 2.56 µM | > 100 µM | 0.987 µM | > 83 µM
10 | COC(=O)c1c2c(c(C)[n+]([O-])c1C)C(=O)C=C(NCc1ccc(F)c(Cl)c1)C2=O | 0.604 µM | 1.71 µM | 0.421 µM | 1.91 µM | 0.117 µM | 1.45 µM | 0.801 µM | 2.07 µM | 0.0258 µM | 1.35 µM | 0.265 µM | 1.63 µM | 1.26 µM | 3.26 µM | 1.01 µM | 2.43 µM | 0.112 µM | 1.32 µM | 0.169 µM | 0.892 µM
11 | O=C1CCCCCCCC/C=C\CC(c2ccco2)O1 (stereo not drawn) | 56 µM | > 100 µM | 28.1 µM | > 100 µM | 24.6 µM | 70.5 µM | 13.1 µM | 40.3 µM | 32.3 µM | 51.6 µM | 34.4 µM | > 100 µM | 21 µM | 64.1 µM | 28.6 µM | > 100 µM | 41.5 µM | > 100 µM | 4.81 µM | > 100 µM
12 | C=CC(=O)N1CCN(c2nc(=O)n(-c3c(C)ccnc3C(C)C)c3nc(-c4c(O)cccc4F)c(F)cc23)[C@@H](C)C1 | 23.3 µM | 64.2 µM | > 44.7 µM | > 73.9 µM | 17 µM | > 52.6 µM | 57.8 µM | > 100 µM | 16.9 µM | 38.1 µM | > 100 µM | > 100 µM | 25.4 µM | > 100 µM | 15.8 µM | > 51.3 µM | 36.8 µM | > 100 µM | 34.1 µM | > 100 µM
13 | COc1ccc(-n2nnnc2-c2c[nH]c3c(F)cc(F)cc23)cc1 | 52.8 µM | > 100 µM | > 100 µM | > 100 µM | > 100 µM | > 100 µM | 75.5 µM | > 100 µM | 86.6 µM | > 100 µM | 40.6 µM | > 100 µM | > 100 µM | > 100 µM | > 100 µM | > 100 µM | > 100 µM | > 100 µM | > 100 µM | > 100 µM
14 | O=C(/C=C/c1cccnc1)NCCCCC1CCCN(C(=O)c2ccccc2)C1 (stereo not drawn) | < 0.01 µM | > 100 µM | 0.0615 µM | > 100 µM | < 0.01 µM | > 100 µM | – | > 100 µM | 5.67 µM | > 100 µM | 0.0103 µM | > 100 µM | > 79.5 µM | > 100 µM | – | > 100 µM | < 0.01 µM | > 100 µM | 37.5 µM | > 100 µM
15 | Cc1ccccc1N=Nc1ccc(NC(=O)c2ccnn2C)c(C)c1 | 36.5 µM | > 100 µM | 25.1 µM | > 100 µM | 32.4 µM | > 100 µM | 24.4 µM | > 100 µM | 72.2 µM | > 100 µM | 63.7 µM | > 100 µM | 15 µM | 89.6 µM | 8.53 µM | > 100 µM | > 100 µM | > 100 µM | 17.8 µM | > 100 µM
16 | COc1cc(C)c(Cl)cc1C1=NN(c2ccc(S(N)(=O)=O)cc2)C(/C=C/c2ccccc2)C1 (stereo not drawn) | 4.26 µM | 17 µM | 4.15 µM | 43.9 µM | 4.11 µM | 24.3 µM | 8.08 µM | > 100 µM | 1.67 µM | 3.21 µM | 3.46 µM | 37.7 µM | 1.53 µM | 3.46 µM | 2.35 µM | 4.76 µM | 4.09 µM | 20.7 µM | 2.55 µM | 9.13 µM
17 | CCCc1cc2c(=O)c(C(=O)OC)c[nH]c2cc1N(CC)CC | 34 µM | > 100 µM | > 100 µM | > 100 µM | 57 µM | > 100 µM | 28.6 µM | 77.8 µM | 25.8 µM | 77.9 µM | 24.2 µM | 72.8 µM | 34.6 µM | > 100 µM | 39.8 µM | > 100 µM | 45.6 µM | > 100 µM | 73.6 µM | > 100 µM
